Source: paper PMC10112232, “Comparison of Toxicities among Different Bumped Kinase Inhibitor Analogs for Treatment of Cryptosporidiosis” (Antimicrobial Agents and Chemotherapy, 2023)
Like-named read-outs stand apart in the source and are kept apart here.

Assays:
[1] = Plasma levels and toxicity signs in treated piglets; type: in vivo, piglet; conditions: for Cmax: pig, plasma, 5 mg/kg, 5 mg/kg BID
[2] = parameters: method as in PMID 30830766; conditions: mice; cited from earlier work
[3] = cited from earlier work; for CO / HR / MAP / PR / QRS / QTcV / SVR / dp/dt@50: dog, IV 0.02 mL/kg/min
[4] = test system: C. hominis; assay: Efficacy in neonatal gnotobiotic piglets infected with C. hominis; type: in vivo; conditions: 5 mg/kg BID
Description: Rectal swabs were processed for oocyst count and DNA measurement. The plot represents mean ± SEM. Wilcoxon matched-pairs signed rank test was conducted using GraphPad Prism 7.03. […] The 5 day doses were given on days 0–4, the 8 day doses were given on days 0–7.
Methods for synthesis of BKIs ([17], [23]), efficacy against Nluc expressing C. parvum in infected adult IFN-γ KO mice ([6], [9]), in vivo mouse GI tract tissue exposure by LC/MS-MS analysis ([18], [28]), PK analysis of mouse plasma and brain tissue BKI concentrations by LC/MS-MS analysis ([29]), in vivo rat and dog cardiotoxicity screen ([30]), efficacy against IOWA-II strain C. parvum in infected neonatal calves ([13]), efficacy against C. hominis in infected piglets ([12]), in vitro inhibition of C. parvum CDPK1 (CpCDPK1) and human tyrosine kinase SRC (HsSRC) activity ([31]), in vitro inhibition of hERG ([32]), Nluc expressing C. parvum in vitro growth inhibition in infected HCT-8 cells ([6]), in vitro cytotoxicity in CRL-8155 and HepG2 cells ([29]), and mouse locomotor activity box ([33], [34]) have all been previously described. Analytes were measured by LC/MS-MS on an Acquity ultra performance liquid chromatography (UPLC) system in tandem with a Xevo TQ-S mass spectrometer (Waters, Milford, MA, USA).

[5] = molecular target: T1, C. parvum calcium dependent protein kinase 1 (CpCDPK1) (Cryptosporidium parvum, UniProt A3FQ16); parameters: method as in PMID 30830766; conditions: read-out: CpCDPK1 IC50; cited from earlier work
T1 sequence (A3FQ16 1-538): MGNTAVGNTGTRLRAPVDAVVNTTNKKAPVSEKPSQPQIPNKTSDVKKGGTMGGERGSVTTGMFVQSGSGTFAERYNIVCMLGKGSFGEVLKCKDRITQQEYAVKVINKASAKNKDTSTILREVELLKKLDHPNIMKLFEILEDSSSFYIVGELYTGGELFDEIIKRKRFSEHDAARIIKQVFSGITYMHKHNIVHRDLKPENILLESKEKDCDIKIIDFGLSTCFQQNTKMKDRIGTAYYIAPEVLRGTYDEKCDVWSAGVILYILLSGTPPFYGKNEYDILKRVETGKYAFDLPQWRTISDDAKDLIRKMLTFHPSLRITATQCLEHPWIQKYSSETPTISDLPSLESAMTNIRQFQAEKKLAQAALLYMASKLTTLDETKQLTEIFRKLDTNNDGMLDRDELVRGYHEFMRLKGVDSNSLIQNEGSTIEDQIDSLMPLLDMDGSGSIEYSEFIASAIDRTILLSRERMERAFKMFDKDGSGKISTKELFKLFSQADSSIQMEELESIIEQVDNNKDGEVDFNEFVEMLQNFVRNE

[6] = test system: HepG2 cells; parameters: method as in PMID 30830766; conditions: cited from earlier work

CCOc1ccc2cc(-c3nn(C(C)(C)CCO)c(N)c3C(N)=O)ccc2c1 [BKI-1770]
visible signs of toxicity ([1]; 5 mg/kg BID for 5 or 8 days): no visible signs of toxicity | Cmax ([1]; at 2 h post dose 5, read-out: plasma observed Cmax): 2100 ± 1400 nM | Cmax ([1]; at 2 h post dose 8, read-out: plasma observed Cmax): 900 ± 400 nM | blood chemistry and histology vs control animals [2]: no apparent abnormalities | effects on MAP, HR, contractility, SVR, CO, QTcV, QRS, PR vs control ([3]; anesthetized dogs, 0.02 mL/kg/min, 150 min): No appreciable effects | CO ([3]; 15 min): 0% | HR ([3]; 15 min): 4% | MAP ([3]; 15 min): 2% | PR ([3]; 15 min): -3 ms | QRS ([3]; 15 min): 0 ms | QTcV ([3]; 15 min): 4 ms | SVR ([3]; 15 min): 2% | dp/dt@50 ([3]; 15 min): 1% | CO ([3]; 30 min): 4% | HR ([3]; 30 min): 5% | MAP ([3]; 30 min): 2% | PR ([3]; 30 min): 0 ms | QRS ([3]; 30 min): 0 ms | QTcV ([3]; 30 min): 1 ms | SVR ([3]; 30 min): -1% | dp/dt@50 ([3]; 30 min): 0% | CO ([3]; 45 min): 3% | HR ([3]; 45 min): 8% | MAP ([3]; 45 min): 2% | PR ([3]; 45 min): -1 ms | QRS ([3]; 45 min): -1 ms | QTcV ([3]; 45 min): 1 ms | SVR ([3]; 45 min): -2% | dp/dt@50 ([3]; 45 min): 1% | CO ([3]; 60 min): -1% | HR ([3]; 60 min): 9% | MAP ([3]; 60 min): 2% | PR ([3]; 60 min): -1 ms | QRS ([3]; 60 min): -2 ms | QTcV ([3]; 60 min): -1 ms | SVR ([3]; 60 min): 2% | dp/dt@50 ([3]; 60 min): -1% | CO ([3]; 75 min): -1% | HR ([3]; 75 min): 9% | MAP ([3]; 75 min): 0% | PR ([3]; 75 min): -1 ms | QRS ([3]; 75 min): -2 ms | QTcV ([3]; 75 min): -3 ms | SVR ([3]; 75 min): 1% | dp/dt@50 ([3]; 75 min): -2% | CO ([3]; 90 min): -9% | HR ([3]; 90 min): 10% | MAP ([3]; 90 min): -1% | PR ([3]; 90 min): 0 ms | QRS ([3]; 90 min): -2 ms | QTcV ([3]; 90 min): -2 ms | SVR ([3]; 90 min): 8% | dp/dt@50 ([3]; 90 min): -6% | CO ([3]; 105 min): -4% | HR ([3]; 105 min): 9% | MAP ([3]; 105 min): -2% | PR ([3]; 105 min): 0 ms | QRS ([3]; 105 min): -3 ms | QTcV ([3]; 105 min): -1 ms | SVR ([3]; 105 min): 2% | dp/dt@50 ([3]; 105 min): -7% | CO ([3]; 120 min): -5% | HR ([3]; 120 min): 10% | MAP ([3]; 120 min): -2% | PR ([3]; 120 min): -1 ms | QRS ([3]; 120 min): -2 ms | QTcV ([3]; 120 min): 0 ms | SVR ([3]; 120 min): 4% | dp/dt@50 ([3]; 120 min): -7% | CO ([3]; 135 min): -8% | HR ([3]; 135 min): 11% | MAP ([3]; 135 min): -3% | PR ([3]; 135 min): -1 ms | QRS ([3]; 135 min): -1 ms | QTcV ([3]; 135 min): -2 ms | SVR ([3]; 135 min): 7% | dp/dt@50 ([3]; 135 min): -7% | CO ([3]; 150 min): -7% | HR ([3]; 150 min): 13% | MAP ([3]; 150 min): -5% | PR ([3]; 150 min): -2 ms | QRS ([3]; 150 min): -1 ms | QTcV ([3]; 150 min): -1 ms | SVR ([3]; 150 min): 4% | dp/dt@50 ([3]; 150 min): -7% | signs of cardiotoxicity ([3]; dogs): no signs of cardiotoxicity | oocyst counts in feces vs controls ([4]; 5-day treatment (P = 0.001)): significantly reduced | oocyst counts in feces vs controls ([4]; 8-day treatment (P = 0.0168)): significantly reduced | diarrhea scores ([4]; both 5- and 8-day treatment groups): significantly reduced | IC50 [5]: 2 nM | CC50 [6]: > 80000 nM
